This note sets out measurements from ChEMBL document CHEMBL4414659, “Chemical Constituents from the Aerial Parts of Agastache rugosa and Their Inhibitory Activities on Prostaglandin E2 Production in Lipopolysaccharide-Treated RAW 264.7 Macrophages” (J Nat Prod, 2019).

Structures are written as SMILES. Some results are limits rather than exact numbers.

The test deals with RAW264.7. Briefly: Antiinflammatory activity against LPS-stimulated mouse RAW264.7 cells assessed as decrease in PGE2 production preincubated for 1 hr followed by LPS stimulation and measured after 24 hrs by ELISA. Format: functional, cell-based.
For `C=CCc1ccc(O[C@@H]2O[C@H](CO)[C@@H](O)[C@H](O)[C@H]2O)cc1`, the IC50 came to 18.3 µM.
Take `C=CCc1ccc(O[C@@H]2O[C@H](CO)[C@@H](O)[C@H](O)[C@H]2O)c(O)c1`: the IC50 turned out to be 3.2 µM.
Regarding `CC1=CC(=O)CC(C)(C)[C@H]1/C=C/[C@@H](C)O[C@@H]1O[C@H](CO)[C@@H](O)[C@H](O)[C@H]1O`, the IC50 worked out at 16.8 µM.
Turning to `COc1ccc(-c2cc(=O)c3c(O)cc(O[C@@H]4O[C@H](COC(=O)CC(=O)O)[C@@H](O)[C@H](O)[C@H]4O)cc3o2)cc1`, the IC50 stood at 18.7 µM.
Regarding `COc1cc(/C=C/C(=O)OC[C@H]2O[C@@H](OCC/C=C\C[C@H]3C(=O)CC[C@@H]3CC(=O)O)[C@H](O)[C@@H](O)[C@@H]2O)ccc1O`, the IC50 was over 50 µM.
Consider `C=CCc1ccc(O)c(O[C@@H]2O[C@H](CO)[C@@H](O)[C@H](O)[C@H]2O)c1`, for which the 50% inhibitory concentration (IC50) was 4.1 µM.
`COc1ccc(-c2cc(=O)c3c(O)cc(O[C@@H]4O[C@H](CO)[C@@H](O)[C@H](OC(C)=O)[C@H]4O)cc3o2)cc1`: the IC50 is over 50 µM.
Turning to `COc1ccc(-c2cc(=O)c3c(O)cc(O[C@@H]4O[C@H](CO)[C@@H](O)[C@H](O)[C@H]4OC(C)=O)cc3o2)cc1`, the IC50 was 4.7 µM.
For `COc1cc(/C=C/C(=O)OC[C@H]2O[C@@H](Oc3ccccc3C(=O)O)[C@H](O)[C@@H](O)[C@@H]2O)ccc1O` the value was 33.9 µM; for `C=CCc1ccc(O[C@@H]2O[C@H](COC(=O)CC(=O)OC)[C@@H](O)[C@H](O)[C@H]2O)cc1`, 14.3 µM; for `COc1ccc([C@@H]2CC(=O)c3c(O)cc(O[C@@H]4O[C@H](CO)[C@@H](O)[C@H](O)[C@H]4O)cc3O2)cc1`, over 50 µM.
On to `C=CCc1ccc(O[C@@H]2O[C@H](COC(C)=O)[C@@H](O)[C@H](O)[C@H]2O)cc1`, for which the IC50 was 48.8 µM.
Regarding `COc1ccc(-c2cc(=O)c3c(O)cc(O[C@@H]4O[C@H](COC(=O)CC(=O)O)[C@@H](O)[C@H](OC(C)=O)[C@H]4O)cc3o2)cc1`, the IC50 came to 16.8 µM.
On to `COc1ccc(-c2cc(=O)c3c(O)cc(O[C@@H]4O[C@H](COC(=O)CC(=O)O)[C@@H](O)[C@H](O)[C@H]4OC(C)=O)cc3o2)cc1`, for which the IC50 was found to be 28.8 µM.
As for `COc1ccc(-c2cc(=O)c3c(O)cc(O[C@@H]4O[C@H](CO)[C@@H](O)[C@H](O)[C@H]4O)cc3o2)cc1O`, the figure is over 50 µM; as for `COc1ccc(-c2cc(=O)c3c(O)cc(O)cc3o2)cc1` [ACACETIN], 6.2 µM.
`O=c1cc(-c2ccc(O)cc2)oc2cc(O)cc(O)c12` [APIGENIN]: the IC50 amounted to 13.4 µM.
As for `O=c1cc(-c2ccc(O)cc2)oc2cc(O[C@@H]3O[C@H](CO)[C@@H](O)[C@H](O)[C@H]3O)cc(O)c12` [APIGETRIN], the figure is over 50 µM; as for `C=CCc1ccc(O[C@@H]2O[C@H](CO)[C@@H](O)[C@H](O)[C@H]2O)c(OC)c1` [CITRUSIN C], 1.7 µM.
Turning to `COc1ccc(-c2cc(=O)c3c(O)cc(O)cc3o2)cc1O` [DIOSMETIN], the IC50 was 8.4 µM.
As for `CCOC(=O)/C=C/c1ccc(O)c(O)c1` [ETHYL CAFFEATE], the figure is 2 µM; as for `CCOC(=O)[C@@H](Cc1ccc(O)c(O)c1)OC(=O)/C=C/c1ccc(O)c(O)c1` [ETHYL ROSMARINATE], 4.3 µM.
Turning to `O=c1cc(-c2ccc(O)c(O)c2)oc2cc(O[C@@H]3O[C@H](CO)[C@@H](O)[C@H](O)[C@H]3O)cc(O)c12` [GALUTEOLIN], the IC50 came out at 6.1 µM.
For `O=c1cc(-c2ccc(O)c(O)c2)oc2cc(O)cc(O)c12` [LUTEOLIN] the value was 8.1 µM; for `COC(=O)[C@@H](Cc1ccc(O)c(O)c1)OC(=O)/C=C/c1ccc(O)c(O)c1` [METHYL ROSMARINATE], 11.3 µM; for `COC(=O)/C=C/c1ccc(O)c(O)c1` [METHYLCAFFEATE], 3.9 µM.
As for `O=C(/C=C/c1ccc(O)c(O)c1)O/C=C\c1ccc(O)c(O)c1` [NEPETOIDIN B], the figure is 3.8 µM.
As for `CS(=O)(=O)Nc1ccc([N+](=O)[O-])cc1OC1CCCCC1` [NS-398], the IC50 was 0.0067 µM.
For `O=C(CCc1ccc(O)cc1)c1c(O)cc(O)cc1O[C@@H]1O[C@H](CO)[C@@H](O)[C@H](O)[C@H]1O` [PHLORIZIN] the value was 14.6 µM; for `O=C(/C=C/c1ccc(O)c(O)c1)O[C@H](Cc1ccc(O)c(O)c1)C(=O)O` [ROSMARINIC ACID], 34.2 µM; for `COc1ccc(-c2cc(=O)c3c(O)cc(O[C@@H]4O[C@H](CO)[C@@H](O)[C@H](O)[C@H]4O)cc3o2)cc1` [TILIANINE], 7.4 µM.
As for `COc1ccc(C(=O)O)cc1` [p-ANISIC ACID], the figure is over 50 µM.

Broadly, the IC50 is the concentration that inhibits the measured activity by half.
